Data reported in patent US6410533B1, “Antibacterial compounds” (Genzyme Corporation, priority 2000, dated 2002).
≈ marks a conversion by molar mass, not a printed value. Where two headings read alike, the source gives them in different places.

How the values were obtained:
[1] = tested on: Staphylococcus aureus bacteria (ATCC 9604 SV); test: Minimal inhibitory concentration (MIC), broth microdilution; type: cell-based; details: 24 h at 37° C.
Method: Minimal inhibitory concentrations (MICs) for Staphylococcus aureus bacteria (ATCC 9604 SV) were determined by broth microdilution methodology following National Committee for Clinical Laboratory Standards. In the MIC determinations, the compounds were incorporated into Mueller-Hinton broth (Becton Dickinson Microbiology systems, Cockeyville, Md.) at a series of concentrations. After the test organism was grown overnight in TB broth, the broths were adjusted to the turbidity equivalent to 0.05 McFarland standard. The suspensions were diluted twenty-fold into the broth containing the compounds. […] In the IC50 determination, the method was modified to allow the rapid growth of the organisms. The inoculum suspensions were adjusted to 0.1 McFarland standard and then diluted two-fold into the wells containing TB broth and the compounds. After three to five hours incubation at 37° C., the turbidity was measured at 550 nm and inhibitory activity was defined as the concentration of antimicrobial agent that inhibits 50% growth of the organism in the microdilution wells.

[2] = tested on: methicillin-resistant Staphylococcus aureus (ATCC 33591); test: In vivo mouse intraperitoneal infection, mortality and % survivors over 7 days; details: 1 and 5 h post inoculation, MRSA ATCC 33591 i.p., ICR mice
Method: Ten male ICR mice weighing 20 grams were inoculated intraperitoneally with an LD90-100 dose (2-3×10^7 CFU/mouse) of methicillin-resistant Staphylococcus aureus (ATCC 33591) in brain-heart infusion broth containing 5% mucin. Compounds were suspended in a vehicle containing 1% cremophore EL (Sigma) in normal saline and were administered subcutaneously in a volume of 0.4 ml per mouse either 1 hour following bacterial inoculation or 1 and 5 hours post inoculation. Animals receiving two doses of drug were injected subcutaneously in the hindquarter one hour post-innoculation and in the neck area, 5 hours post-innoculation. Deaths occurring during the subsequent 7 days are recorded. Mortality and % survivor endpoints are calculated.

[3] = Staphylococcus aureus ATCC 9604 SV
[4] = ATCC9604, Staphylococcus aureus ATCC 9604 SV, read-out: MIC

MIC [1, 3] [µg/mL]	Compound	MIC [1, 4] [µg/mL]	In Vivo, double dose (% of mice rescued) ([2]; 2 × 2 mg/kg s.c.) [% @ 2 × 2 mg/kg]	In Vivo, double dose (% of mice rescued) ([2]; 2 × 20 mg/kg s.c.) [% @ 2 × 20 mg/kg]
>8.33	CC1(C)C(=O)N(c2cc(Cl)cc(Cl)c2)N=C1c1ccccc1 [Compound 4]			
6.08 (≈ 25 µM)	CC1=NN(c2cc(Cl)cc(Cl)c2)C(=O)C1 [Compound 5]			
>7.98	Cc1ccc(C2=NN(c3cc(Cl)cc(Cl)c3)C(=O)C2)cc1 [Compound 6]			
>8.08	O=C1CC(c2ccccc2F)=NN1c1cc(Cl)cc(Cl)c1 [Compound 7]			
>7.78	O=C1CC(C2CCCCC2)=NN1c1cc(Cl)cc(Cl)c1 [Compound 8]			
	CN(C)C=C1C(=O)N(c2cc(Cl)cc(Cl)c2)N=C1c1ccccc1 [Compound 9, 2-(3,5-Dichloro-phenyl)-4-dimethylaminomethylene-5-phenyl-2,4-dihydro-pyrazol-3-one]	> 9.01		
>6.43	CC1=NN(c2cc(Cl)cc(Cl)c2)C(=O)C1C (stereo not drawn) [Compound 11]			
>6.73	O=C1C2CCCC2=NN1c1cc(Cl)cc(Cl)c1 (stereo not drawn) [Compound 12]			
>6.78	CC(C)C1=NN(c2cc(Cl)cc(Cl)c2)C(=O)C1 [Compound 13]			
3.56 (≈ 12 µM)	O=C1CC(C(F)(F)F)=NN1c1cc(Cl)cc(Cl)c1 [Compound 14]			
>7.08	O=C1C2CCCCC2=NN1c1cc(Cl)cc(Cl)c1 (stereo not drawn) [Compound 18]			
8.33 (≈ 25 µM)	CC1=NN(c2cc(Cl)cc(Cl)c2)C(=O)C1Cc1ccccc1 (stereo not drawn) [Compound 21]			
	O=C1C(=NO)C(c2ccccc2)=NN1c1cc(Cl)cc(Cl)c1 [Compound 23, 2-(3,5-Dichloro-phenyl)-5-phenyl-2H-pyrazole-3,4-dione-4-oxime]	8.35 (≈ 25 µM)	0	25
>12.5	O=C(C=C1C(=O)N(c2cc(Cl)cc(Cl)c2)N=C1c1ccccc1)c1ccccc1 [Compound 26]			
>12.5	CCN(CC)c1ccc(C=C2C(=O)N(c3cc(Cl)cc(Cl)c3)N=C2c2ccccc2)cc1 [Compound 27]			
>12.5	CN(C)CCCOc1ccc(C=C2C(=O)N(c3cc(Cl)cc(Cl)c3)N=C2c2ccccc2)cc1 [Compound 28]			
12.5 (≈ 31.7 µM)	O=C1C(=Cc2ccccn2)C(c2ccccc2)=NN1c1cc(Cl)cc(Cl)c1 [Compound 29]			
	CN1CCC(=C2C(=O)N(c3cc(Cl)cc(Cl)c3)N=C2c2ccccc2)CC1 [Compound 31, 2-(3,5-Dichloro-phenyl)-4-(1-methyl-piperidin-4-ylidene)-5-phenyl-2,4-dihydropyrazol-3-one]	5 (≈ 12.5 µM)	0	0
0.320 (≈ 0.808 µM)	Cn1cccc1C=C1C(=O)N(c2cc(Cl)cc(Cl)c2)N=C1c1ccccc1 [Compound 32]			
>12.5	O=C1C(=Cc2ccco2)C(c2ccccc2)=NN1c1cc(Cl)cc(Cl)c1 [Compound 35]			
12.5 (≈ 31.3 µM)	O=C1C(=Cc2cccs2)C(c2ccccc2)=NN1c1cc(Cl)cc(Cl)c1 [Compound 36]			
12.5 (≈ 31.2 µM)	O=C1C(=Cc2nccs2)C(c2ccccc2)=NN1c1cc(Cl)cc(Cl)c1 [Compound 37]			
6.25 (≈ 14.2 µM)	CSc1ccc(C=C2C(=O)N(c3cc(Cl)cc(Cl)c3)N=C2c2ccccc2)cc1 [Compound 38]			

MIC [1, 3] [µg/mL]	Compound	MIC [1, 4] [µg/mL]	In Vivo, double dose (% of mice rescued) ([2]; 2 × 2 mg/kg s.c.) [% @ 2 × 2 mg/kg]	In Vivo, double dose (% of mice rescued) ([2]; 2 × 20 mg/kg s.c.) [% @ 2 × 20 mg/kg]
>10.0	O=C1C(=Cc2c[nH]c3ccccc23)C(c2ccccc2)=NN1c1cc(Cl)cc(Cl)c1 [Compound 39]			
12.5 (≈ 27.3 µM)	CCOC(=O)N1CCC(=C2C(=O)N(c3cc(Cl)cc(Cl)c3)N=C2c2ccccc2)CC1 [Compound 41]			
0.400 (≈ 0.896 µM)	Cn1cc(C=C2C(=O)N(c3cc(Cl)cc(Cl)c3)N=C2c2ccccc2)c2ccccc21 [Compound 43]			
12.5 (≈ 27.7 µM)	COC(=O)c1ccccc1C=C1C(=O)N(c2cc(Cl)cc(Cl)c2)N=C1c1ccccc1 [Compound 44]			
2.33 (≈ 6.26 µM)	O=C1CC(c2ccccc2)=NN1c1cc(C(F)(F)F)cc(C(F)(F)F)c1 [Compound 47]			
>7.65	O=C1CC(c2ccccn2)=NN1c1cc(Cl)cc(Cl)c1 [Compound 48]			
7.15 (≈ 25 µM)	CCC1=NN(c2cc(Cl)cc(Cl)c2)C(=O)C1=NO [Compound 60]			
8.53 (≈ 25 µM)	CCC1=NN(c2cc(Cl)cc(Cl)c2)C(=O)C1=CCCC(=O)O [Compound 61]			
12.5 (≈ 28.1 µM)	CCOC(=O)C1=NN(c2cc(Cl)cc(Cl)c2)C(=O)C1=CC1C(=O)Nc2ccccc21 (stereo not drawn) [Compound 62]			
12.5 (≈ 28.9 µM)	CCOC(=O)C1=NN(c2cc(Cl)cc(Cl)c2)C(=O)C1=Cc1ccc(C(=O)O)cc1 [Compound 63]			
6.25 (≈ 17.5 µM)	CCOC(=O)C1=NN(c2cc(Cl)cc(Cl)c2)C(=O)C1=CC(=O)O [Compound 64]			
3.76 (≈ 12.5 µM)	CCOC(=O)C1=NN(c2cc(Cl)cc(Cl)c2)C(=O)C1 [Compound 67]			
11.8 (≈ 25 µM)	CCC1=NN(c2cc(Cl)cc(Cl)c2)C(=O)C1=Cc1cccc(C(=O)N2CCN(C)CC2)c1 [Compound 68]			
11.5 (≈ 25.1 µM)	CCC1=NN(c2cc(Cl)cc(Cl)c2)C(=O)C1=Cc1cccc(C(=O)N2CCOCC2)c1 [Compound 69]			
5.40 (≈ 12.5 µM)	CCC1=NN(c2cc(Cl)cc(Cl)c2)C(=O)C1=Cc1cccc(C(=O)NCCO)c1 [Compound 70]			
9.05 (≈ 25 µM)	O=C(NCc1cccc(Cl)c1)Nc1nc(-c2cccc(F)c2)cs1 [Compound 174]			
5.15 (≈ 12.5 µM)	O=C(NCc1cccc(Cl)c1)Nc1nc(-c2ccc(C(F)(F)F)cc2)cs1 [Compound 176]			
5.16 (≈ 12.5 µM)	O=C(NCc1cccc(Cl)c1)Nc1nc(-c2ccc(Cl)cc2Cl)cs1 [Compound 177]			
9.50 (≈ 25 µM)	O=C(NCc1cccc(Cl)c1)Nc1nc(-c2ccc(F)cc2F)cs1 [Compound 178]			
5.16 (≈ 12.5 µM)	O=C(NCc1cccc(Cl)c1)Nc1nc(-c2ccc(Cl)c(Cl)c2)cs1 [Compound 179]			
9.40 (≈ 25 µM)	Cc1cc(-c2csc(NC(=O)NCc3cccc(Cl)c3)n2)ccc1F [Compound 180]			
11.4 (≈ 24.9 µM)	O=C(NCc1ccc(Cl)c(Cl)c1)Nc1nc(-c2ccc(Br)cc2)cs1 [Compound 181]			

Compound	MIC [1, 3] [µg/mL]	MIC [1, 4] [µg/mL]	In Vivo, double dose (% of mice rescued) ([2]; 2 × 2 mg/kg s.c.) [% @ 2 × 2 mg/kg]	In Vivo, double dose (% of mice rescued) ([2]; 2 × 20 mg/kg s.c.) [% @ 2 × 20 mg/kg]
CCCC1=NN(c2cc(Cl)cc(Cl)c2)C(=O)C1 [Compound 10]	0.813 (≈ 3 µM)		0	0
O=C1CC(c2cccc(F)c2)=NN1c1cc(Cl)cc(Cl)c1 [Compound 15]	0.485 (≈ 1.5 µM)		0	0
O=C1CC(c2ccc(F)cc2)=NN1c1cc(Cl)cc(Cl)c1 [Compound 16]	0.485 (≈ 1.5 µM)		0	25
CCC1=NN(c2cc(Cl)cc(Cl)c2)C(=O)C1 [Compound 17]	1.54 (≈ 5.99 µM)		12.5	25
O=C1C(=Cc2ccncc2)C(c2ccccc2)=NN1c1cc(Cl)cc(Cl)c1 [Compound 19]	1.15 (≈ 2.92 µM)		0	25
CCC1C(=O)N(c2cc(Cl)cc(Cl)c2)N=C1C (stereo not drawn) [Compound 20]	>6.78			
CC(C)=C1C(=O)N(c2cc(Cl)cc(Cl)c2)N=C1c1ccccc1 [Compound 22]	0.518 (≈ 1.5 µM)		0	25
O=C(O)c1ccccc1C=C1C(=O)N(c2cc(Cl)cc(Cl)c2)N=C1c1ccccc1 [Compound 24]	1.35 (≈ 3.09 µM)		0	0
CC(=O)C=C1C(=O)N(c2cc(Cl)cc(Cl)c2)N=C1c1ccccc1 [Compound 25]	3.12 (≈ 8.69 µM)		0	0
O=C1C(=Cc2cccnc2)C(c2ccccc2)=NN1c1cc(Cl)cc(Cl)c1 [Compound 30]	1.20 (≈ 3.04 µM)		0	0
O=C1C(=Cc2ccsc2)C(c2ccccc2)=NN1c1cc(Cl)cc(Cl)c1 [Compound 33]	5.00 (≈ 12.5 µM)		25	0
O=C1C(=Cc2ccoc2)C(c2ccccc2)=NN1c1cc(Cl)cc(Cl)c1 [Compound 34]	2.40 (≈ 6.26 µM)		25	25
O=C1CC(c2cccnc2)=NN1c1cc(Cl)cc(Cl)c1 [Compound 53]	7.65 (≈ 25 µM)			
